Measurements taken from patent publication US7091352B2, “Compounds substituted with bicyclic amino groups” (priority 2001, dated 2006).
Read-outs that look alike come from different tables or passages of the source.

Assays:
IL-1β production = test: Inhibition of the production of IL-1β in vitro in human whole blood (LPS stimulation, ELISA); type: cell-based; conditions: lipopolysaccharide 10 μg/ml, 6 hours at 37° C., plasma ELISA, read-out: Inhibitory Effect on IL-1β Production IC50
Experimental: (§1) This test was performed according to the method of Hartman, et al. [D. A. Hartman, S. J. Ochalski and R. P. Carlson; The effects of anti-inflammatory and antiallergic drugs on cytokine release after stimulation of human whole blood by lipopolysaccharide and zymosan A: Inflamm. Res., 44, 269 (1995)].
(§2) Peripheral blood samples were collected in the presence of heparin from healthy adult volunteers. 1000 μl of whole blood were added to an Eppendorf tube to which 2 μl of a dimethyl sulfoxide solution of the test compound had been added in advance, after which 10 μl of lipopolysaccharide (E. coli 026: B6 origin, Difco) were added as a stimulant (final concentration of said lipopolysaccharide: 10 μg/ml). This was mixed well and then incubated for 6 hours at 37° C. in the presence of 5% CO2. At the end of the incubation, the mixture was cooled to 4° C. to stop the reaction, followed immediately by centrifuging for 5 minutes at 14,000 rpm to separate and collect the supernatant plasma. The IL-1β and TNFα produced and released into the plasma were measured using commercially available enzyme immunoassay (ELISA) kits [Cayman (IL-1β) and Genzyme (TNFα)]. […] The inhibitory effect [IC50 (μM)] on the production of IL-1β and TNFα was determined by the method of least squares from the amounts of the cytokines produced in the presence and absence of the test compound.

TNFα production = test: Inhibition of the production of TNFα in vitro in human whole blood (LPS stimulation, ELISA); type: cell-based; conditions: read-out: Inhibitory Effect on TNFα Production IC50
Experimental: as §1, §2

Compound	IC50 (IL-1β production) [nM]	IC50 (TNFα production; human whole blood, lipopolysaccharide 10 μg/ml, 6 hours at 37° C., plasma ELISA) [nM]	IC50 (TNFα production; Homo sapiens, 6 h) [nM]
OC1(c2n[nH]c(-c3ccc(F)cc3)c2-c2ccncc2)CCN2CCCC2C1 (racemic) [Example 2, (±)-5-(4-Fluorophenyl)-3-(7-hydroxy-1,2,3,5,6,7,8,8a-octahydroindolizin-7-yl)-4-(pyridin-4-yl)pyrazole]	35	70	–
CC1C[C@H]2C=C(c3n[nH]c(-c4ccc(F)cc4)c3-c3ccncc3)CCN2C1 (stereo partly drawn) [Example 12, 5-(4-Fluorophenyl)-3-[(8aS)-2-methyl-1,2,3,5,6,8a-hexahydroindolizin-7-yl]-4-(pyridin-4-yl)pyrazole]	–	–	2.6
